Tests used:
OR51L1 = molecular target: T1, OR51L1 (Homo sapiens, UniProt Q8NGJ5); assay: Luciferase reporter gene assay, OR51L1 expressed in HEK293 cells; type: cell-based; settings: for Inhibition ratio of OR51L1 response: response to hexanoic acid, test substance added together with hexanoic acid, HEK293
T1 construct: expressed in transfected cells; host or cells: HEK293
T1 sequence (Q8NGJ5 1-315): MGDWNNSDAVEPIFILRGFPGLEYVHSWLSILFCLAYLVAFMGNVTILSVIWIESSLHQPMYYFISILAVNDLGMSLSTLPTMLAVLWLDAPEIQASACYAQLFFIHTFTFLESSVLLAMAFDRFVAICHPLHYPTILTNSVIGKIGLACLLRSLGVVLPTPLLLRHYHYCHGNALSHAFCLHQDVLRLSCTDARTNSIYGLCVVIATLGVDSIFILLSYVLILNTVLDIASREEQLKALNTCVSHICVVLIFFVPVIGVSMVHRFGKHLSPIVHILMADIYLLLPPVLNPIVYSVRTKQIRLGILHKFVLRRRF
Method: (§1) Cloning of human olfactory receptors was performed based on the sequence information registered in GenBank, through PCR with human genomic DNA female (G1521: Promega) as a template. Each of the genes amplified through PCR was inserted into a pENTR vector (Invitrogen) according to an instruction manual. Then, the gene-inserted vector was digested with NotI and AscI, and the obtained fragments were inserted into NotI and AscI sites located downstream of the Flag-Rho tag sequence in the pME18S vector.
(§2) Each of the 350 types of human olfactory receptors was expressed in HEK293 cells. A reaction solution having a composition shown in Table 2 was prepared on a clean bench, and left to stand for 15 minutes. The solution was dispensed to each well of a 96-well plate (BD). Subsequently, […] cells (100 μL, 3×10^5 cells/cm^2) were seeded in each well and cultured for 24 hours in an incubator at 37° C. and under 5% CO2 conditions.
(§3) The olfactory receptor expressed in HEK293 cell was conjugated with cell-intrinsic Gas to activate adenylate cyclase, and thereby the level of intracellular cAMP was increased. For the measurement of the response to odor in this study, the luciferase reporter gene assay was used, in which an increase in the amount of intracellular cAMP was monitored by using the emission value originating from firefly luciferase gene (fluc2P-CRE-hygro) as an indicator. Furthermore, a gene product obtained by fusing renilla luciferase gene in the downstream of CMV promoter (hRluc-CMV) was simultaneously introduced, and this was used as an internal standard for correcting an error in the transgenesis efficiency or the number of cells. The medium was removed from the culture prepared in the above-described section 3) by using a Pipetman, and 75 μl of a solution containing an odor substance (1 mM hexanoic acid or 300 μM nonanoic acid) prepared in CD293 medium (Invitrogen) was added thereto. The cells were cultured for 4 hours in a CO2 incubator, and the luciferase gene was sufficiently expressed in the cells. For the measurement of luciferase activity, the measurement was carried out by using a Dual-Glo™ luciferase assay system (Promega) according to the operation manual of the product. A value calculated by dividing the emission value, derived from a firefly luciferase induced by the stimulation with an odor substance, by the emission value in cells that were not-stimulated with an odor substance, was designated as a fold increase, and used as an index of response intensity.
(§4) OR2W1, OR10A6, OR51E1, OR51I2, and OR51L1 were respectively expressed in HEK293 cells by the same method as that used in Example 1, and a luciferase assay was carried out. In the luciferase assay, hexanoic acid was used as the odorous substance, and test substances were added together with hexanoic acid. The response of the olfactory receptors to hexanoic acid was measured, and a decrease in the receptor response to the addition of test substances was evaluated.
The inhibition ratios of the receptor response to test substances were calculated as follows. The emission value (Y) obtained from the cells in which the same receptors were introduced but no odor stimulation was conducted, was subtracted from the emission value derived from firefly luciferase (X) induced by odor stimulation with hexanoic acid alone. Similarly, the emission value (Y) obtained from the cells in which no odor stimulation was conducted, was subtracted from the emission value (Z) caused by stimulation with a mixture of hexanoic acid and a test substance. By the following calculation formula, the inhibitory activity of the test substance to receptor response was calculated based on the increment of the emission value (X−Y) caused by stimulation of hexanoic acid alone. Multiple independent experiments were performed in duplicate, and the average of each experiment was obtained. Inhibition ratio (%)={1−(Z−Y)/(X−Y)}×100 […]

OR10A6 = molecular target: T2, OR10A6 (Homo sapiens, UniProt Q8NH74); assay: Luciferase reporter gene assay, OR10A6 expressed in HEK293 cells; type: cell-based; settings: response to hexanoic acid; test substance added together with hexanoic acid; HEK293
T2 construct: expressed in transfected cells; host or cells: HEK293
T2 sequence (Q8NH74 1-314): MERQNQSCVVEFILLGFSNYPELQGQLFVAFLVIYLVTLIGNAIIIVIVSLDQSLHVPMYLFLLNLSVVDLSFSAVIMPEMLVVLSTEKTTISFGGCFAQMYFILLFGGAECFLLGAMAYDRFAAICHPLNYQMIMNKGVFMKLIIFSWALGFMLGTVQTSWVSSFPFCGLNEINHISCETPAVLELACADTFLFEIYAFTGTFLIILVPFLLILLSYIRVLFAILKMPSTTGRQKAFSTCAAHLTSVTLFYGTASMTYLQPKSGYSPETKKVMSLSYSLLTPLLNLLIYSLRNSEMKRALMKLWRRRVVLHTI
Method: as §1, §2, §3, §4
The inhibition ratios of the receptor response to test substances were calculated as follows. The emission value (Y) obtained from the cells in which the same receptors were introduced but no odor stimulation was conducted, was subtracted from the emission value derived from firefly luciferase (X) induced by odor stimulation with hexanoic acid alone. Similarly, the emission value (Y) obtained from the cells in which no odor stimulation was conducted, was subtracted from the emission value (Z) caused by stimulation with a mixture of hexanoic acid and a test substance. By the following calculation formula, the inhibitory activity of the test substance to receptor response was calculated based on the increment of the emission value (X−Y) caused by stimulation of hexanoic acid alone. Multiple independent experiments were performed in duplicate, and the average of each experiment was obtained. Inhibition ratio (%)={1−(Z−Y)/(X−Y)}×100

Compound | Inhibition ratio of OR51L1 response (OR51L1) | Inhibition ratio of OR10A6 response (OR10A6) | Inhibition of OR51L1 response to hexanoic acid (in words) (OR51L1; 1 mM hexanoic acid, test substance 3, 10, 30, 100, 300 μM (FIG. 4))
2,4,6-trimethyl-3-cyclohexene-1-carboxyaldehyde, 3,5,6-trimethyl-3-cyclohexene-1-carboxyaldehyde [Isocyclocitral] | 1 (Inhibition ratio: 50% or higher) | 1 (Inhibition ratio: 50% or higher) | –
CC(C)c1cccc(C(C)CC=O)c1 (stereo not shown) [Florhydral, 3-(3-isopropylphenyl)-butyraldehyde] | 1 (Inhibition ratio: 50% or higher) | – | in a concentration-dependent manner

From patent publication US9526680B2, “Method for searching for malodor control agent, malodor control agent, and malodor control method” (Kao Corporation, priority 2010, dated 2016)
